Experimental data from patent US20100204202A1, “DRUG FOR ALLEVIATING MOTOR COMPLICATIONS OR PSYCHIATRIC SYMPTOMS OF PARKINSON'S DISEASE” (Asubio Pharma Co., Ltd., priority 2007, published 2010).
Structures can show the parent of a compound that is named as a salt.

Tests used:
[1] = tested on: Parkinson's disease model rats; test: Levodopa-induced striatal dopamine release and rotational behavior, brain microdialysis in Parkinson's disease model rats; format: in vivo, rat; conditions: for rotational behavior of the rats: 3 and 10 mg/kg i.p.
Method: For preparing Parkinson's disease model rats by unilateral nigrostriatal dopamine nerve destruction, Crl: CD (SD) male rats supplied by Charles River Japan (8 weeks old at start of test) were used. About 30 minutes before injection of 6-hydroxydopamine, the norepinephrine reuptake inhibitor desipramine (25 mg/kg) was intraperitoneally administered, then the rat head was fixed to a brain stereotaxic apparatus under anesthesia by intraperitoneal administration of pentobarbital (40 mg/kg). 6-hydroxydopamine (total amount 8 μg/4 μL) including ascorbic acid was dissolved in physiological saline, then was injected at two locations of the right medial forebrain bundle (at 1.8 mm posterior to the bregma, 2.0 mm right-lateral to the median line and 8.3 mm ventral to the surface of the skill and 4.5 mm to the rear from the bregma, 1.4 mm to the right from the midline, and a depth of 8.5 mm from the cranium) through a microinjection syringe at a flow rate of 1.0 μL/min over 4 minutes, then was allowed to stand for 5 minutes. To confirm the success of dopamine nerve destruction after about 3 weeks from the above surgery, the rotational behavior of the rats after subcutaneous administration of the dopamine receptor agonist apomorphine (0.05 mg/kg) was measured using a rotational behavior-measuring equipment (Rotameter 6ch System, Muromachi Kikai Co., Ltd.). Rats rotating over 100 times in the opposite direction to the injection in the one hour right after apomorphine administration were judged to have unilateral nigrastriatal dopamine nerve destruction and were used for the subsequent tests.
Furthermore, from about one week later, the rats were given repeated intraperitoneal administration of levodopa (25 mg/kg)+peripheral dopa-decarboxylase inhibitor benserazide (10 mg/kg) (hereinafter referred to as “repeated doses of levodopa”) (twice a day, from Monday to Friday) for 6 weeks.
For the brain microdialysis guide cannule insertion surgery, under anesthesia by pentobarbital (40 mg/kg intraperitoneal administration), the head of each rat was fixed on a brain stereotaxic apparatus, then a brain microdialysis guide cannule (Carnegie Medicin PC12 guide cannule) was inserted into the right striatum (0.5 mm in front of the bregma, 3.0 mm from the midline to the right, and 4.0 mm deep from the cranium) and dental cement was used to fix it to the rat skull. […] The obtained dialysate was immediately measured for dopamine concentration using a high performance liquid chromatography system with an electrochemical detector (LC-ECD). Further, every 30 minutes after levodopa administration, the number of rotations in 5 minutes to the side opposite to the 6-hydroxydopamine injection side was visually measured. […]

[2] = tested on: Parkinson's disease patients; test: Clinical test of efficacy, safety and tolerability in patients with motor complications associated with Parkinson's disease; format: in vivo, human
Excerpt: The efficacy of SUN N4057 on motor complications accompanying levodopa therapy in Parkinson's disease patients was studied in randomized, double-blind, placebo-controlled, multicenter, international, preliminary study. The patients aged 40 to 85 years, having idiopathic Parkinson's disease fulfilling the United Kingdom Parkinson's Disease Society (UK PDS) brain bank diagnostic criteria, having a presumed or confirmed diagnosis of Parkinson's disease in Stages 2 to 4 on the Hoehn & Yahr classification scale when in an “off” state, having a diagnosis of Parkinson's disease for at least 5 years, and being on a stable regimen of levodopa (L-dopa)/carbidopa for 30 days prior to the administration of the tested drug were enrolled into the study.
After providing their informed consent, the subjects were screened in 9 to 22 days before scheduled date of start of administration. During the screening phase, the patients continued to take their usual regimen of antiparkinsonian drugs including combinations of levodopa and carbidopa or combined use of single drugs.
At the baseline (8±2 days before scheduled date of start of administration), the subjects returned to the clinic for a baseline assessment of motor fluctuations over an 8-hour period. They received the first morning dose of the patient's usual anti-Parkinson's disease drugs (including combination of levodopa and carbidopa or combined use of single drugs), and the 8 hour evaluation began approximately 1 hour after taking the initial treatment. Each hour for 8 hours, the patient were assessed and it was recorded whether the patient was in the “on” (without dyskinesia), “on with dyskinesia,” or “off” motor states. The Unified Parkinson's Disease Rating Scale (UPDRS) Part III and the Abnormal Involuntary Movement Scale AIMS were also completed each hour over the 8-hour observation period.
The subjects judged eligible after the screening and baseline evaluation were randomly assigned in a 3:1 ratio (3 active:1 placebo) to receive SUN N4057 or matching placebo. The subjects received continuous intravenous infusion of SUN N4057 (target plasma concentration of 30 ng/mL) or a placebo for 12 hours a day for 2 consecutive days. The dose regimen was selected to reach the target plasma concentration 1 hour after the start of administration and to be maintained for 11 hours. The mean dosage of SUN N4057 for the patients was 13.123 mg on day 1 and 9.550 mg on day 2.
On day 1, motor assessments (recording of “on” or “off” periods), the Unified Parkinson's Disease Rating Scale (UPDRS) Part III, and the Abnormal Involuntary Movement Scale (AIMS) were conducted immediately prior to dosing with regular antiparkinsonian medications. After the first morning dose of the regular antiparkinsonian medication was administered, intravenous infusion of SUN N4057 or placebo was started. For 8 hours from the start of infusion, motor assessments, including the UPDRS Part III, AIMS, and recording of “on” and “off” periods were to be completed hourly.

[3] = After administration (day 2), i.v. infusion 12 hours a day, n = 18

O=C1c2ccccc2OC=C(Cl)N1CCCCN1CC=C(c2ccccn2)CC1 [SUN N4057, 3-chloro-4,5-dihydro-4-{4-[4-(2-pyridyl)-1,2,3,6-tetrahydropyridin-1-yl]butyl}-1,4-benzoxazepin-5-one.dihydrochloride-dihydrate]
increase of the amount of striatal dopamine release due to levodopa ([1]; 3 and 10 mg/kg i.p. 20 minutes before levodopa 25 mg/kg, week 6 of repeated levodopa): inhibitory action
peak time of the amount of dopamine release ([1]; 3 and 10 mg/kg i.p. before levodopa): delayed
rotational behavior of the rats ([1]; 150 to 210 minutes after levodopa dosage): increase
rotational behavior of the rats ([1]; 30 minutes after levodopa administration): decreased
Percentage of off time [2, 3]: 9.7%
Percentage of on time with dyskinesia [2, 3]: 49.3%
Percentage of on time without dyskinesia [2, 3]: 41.0%
serious adverse events or deaths ([2]; clinical study): no serious adverse events or deaths were reported
decrease of the percentage of off time in the comparison with baseline ([2]; day 2 (9.7-20.8)): 11.1 points
increase of the percentage of on time without dyskinesia in the comparison with baseline ([2]; day 2 (41.0-18.8)): 22.2 points
percentage of responder (dyskinesia by AIMS improved in severity or suppressed to zero without prolongation of off time) ([2]; day 2, placebo 0%, p=0.02): 56%
UPDRS Part 3 decline in comparison with the baseline ([2]; day 2 of administration, placebo 0.9): 4.4 point
